This is an account of results in patent US20220089636A1, “TETRAZOLONE SUBSTITUTED STEROIDS AND USE THEREOF” (Beijing Xuanyi PharmaSciences Co., Ltd., priority 2019, published 2022).

Structures are written as SMILES. Read-outs that look alike come from different tables or passages of the source.

The target in data set [1] is T1, α1β2γ2 GABAA receptor (Homo sapiens, UniProt P14867+P47870).
T1 construct: expressed in transfected cells
Nature of the data set: Patch clamp electrophysiology assay of recombinant α1β2γ2 GABAA receptors (potentiation of 2 μM GABA-evoked Cl- current). Particulars: HEK293T cells stably transfected with α1β2γ2 GABAA; for EC50: whole cell, 2 μM GABA, -80 mV; for Emax: HEK-293T, potentiation of 2 μM GABA current. The data set is classed as cell-based. As for the experimental part: Cellular electrophysiology is used to measure the pharmacological properties of GABAA receptor modulators in heterologous cell systems. Each compound is tested for its ability to affect GABA mediated currents at a submaximal agonist dose (GABA EC20=2 μM). HEK293T cells are stably transfected with the α1β2γ2 subunits of the GABAA receptor. Flasks or dishes of HEK293 GABAA cells were maintained in the medium (DMEM, 11% (v/v) heat inactivated FBS, 100 or 200 μg/ml G418, 40 μg/ml Hygromycin B, 80 μg/ml Zeocin) and incubated at 37° C. in a humidified incubator with 5% CO2. 12 to 24 hours prior to electrophysiological recordings, the cells were plated on glass cover slips placed in culture dishes and maintained under the same incubation and media conditions. The number of cells being plated on the cover slip should reach a confluence rate at which majority of the cells are single.
For the electrophysiological recordings in the study the following external and internal solutions were used (Table 1):
HEKA EPC 10 USB patch clamp amplifier (from HEKA Elektronik, Germany) was used in the whole cell recording. A cover slip with plenty of single HEK293T-GABAA cells on the surface was removed and placed into a continuously perfused (approximately 1-2 ml/minute) recording chamber mounted on an inverted microscope. GABAA Cl^− current was recorded from single cell using standard whole cell recording techniques. 2 μM GABA was used to evoke GABAA Cl^− current (2 μM of GABA was the EC10-EC20 value of agonist GABA obtained internally on the stable GABAA cells used in this study). After achieving break-in (whole-cell) configuration, the cell was voltage clamped at a holding potential of −80 mV. Only stable cells meeting the recording parameters (membrane resistance Rm>500 MΩ, access resistance (Ra)<15 MΩ, leak current<100 pA in 90% of the recording time) were used. 2 μM GABA was applied to the cell to induce stable Cl^− current first as control for about 2 seconds, test compounds (i.e., compounds of formula (AI), (I), (AII), and (II), or any subgenera thereof) were followed to be applied to the cells for 3 min, then 2 μM GABA was applied to observe the potentiation effect on the GABAA Cl^− current. Different doses of test compound from low to high were applied to the same cell when the cell was stable. A cell was considered stable when current size evoked by 2 μM GABA applied to the cell from time to time was similar. To minimize the possible desensitation of GABAA Cl^− current, duration between applications of test articles was set to 180 seconds.
Test compounds were dissolved in DMSO to form stock solutions (10 mM). Test compounds were diluted to 0.003, 0.01, 0.03, 0.1, 0.3, 1, 3 and 10 μM in bath solution. AU concentrations of test articles were tested on each cell. Data were analyzed using software provided by HEKA, Microsoft Excel and Graphpad Prism (Table 2).

The nature of data set [2]: Mouse PK study (i.v. and p.o.). The note with it: plasma, male CD1 mice; for half-life: read-out: T1/2 (hr) i.v. (converted); for Vd: read-out: Vss; for bioavailability: 5 mg/kg p.o. vs 1 mg/kg i.v. The data set is classed as in vivo. As for the experimental part: Test compounds were dosed to male CD1 mice at 5 mg/kg by oral gavage (p.o.) or 1 mg/kg by intravenous injection (i.v.). Blood samples were taken at 0.083, 0.25, 0.5, 1.0, 3.0, 6.0 and 24 hours post i.v. dosing and at 0.25, 0.5, 1.0, 3.0, 6.0 and 24 hours post p.o. dosing. The plasma concentration of compounds were determined by HPLC.

The mark [3] stands for this setting: iv, 1 mg/kg i.v., read-out: AUClast (hr*ng/mL) i.v.
The mark [4] stands for this setting: po, 5 mg/kg p.o., read-out: AUClast (hr*ng/mL) p.o.

T1 sequence (P14867 28-456): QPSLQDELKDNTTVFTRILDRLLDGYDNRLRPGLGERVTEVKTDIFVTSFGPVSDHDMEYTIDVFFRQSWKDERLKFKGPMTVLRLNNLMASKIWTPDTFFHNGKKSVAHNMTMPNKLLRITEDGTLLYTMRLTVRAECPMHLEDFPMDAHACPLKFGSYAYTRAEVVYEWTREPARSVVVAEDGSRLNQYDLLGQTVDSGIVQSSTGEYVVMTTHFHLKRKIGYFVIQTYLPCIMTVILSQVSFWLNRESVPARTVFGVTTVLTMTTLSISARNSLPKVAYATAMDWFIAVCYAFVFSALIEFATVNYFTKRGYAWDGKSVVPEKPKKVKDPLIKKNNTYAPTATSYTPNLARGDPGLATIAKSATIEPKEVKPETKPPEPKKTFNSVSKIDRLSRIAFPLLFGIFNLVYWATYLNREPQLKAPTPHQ
T1 sequence (P47870 25-512 limits assumed): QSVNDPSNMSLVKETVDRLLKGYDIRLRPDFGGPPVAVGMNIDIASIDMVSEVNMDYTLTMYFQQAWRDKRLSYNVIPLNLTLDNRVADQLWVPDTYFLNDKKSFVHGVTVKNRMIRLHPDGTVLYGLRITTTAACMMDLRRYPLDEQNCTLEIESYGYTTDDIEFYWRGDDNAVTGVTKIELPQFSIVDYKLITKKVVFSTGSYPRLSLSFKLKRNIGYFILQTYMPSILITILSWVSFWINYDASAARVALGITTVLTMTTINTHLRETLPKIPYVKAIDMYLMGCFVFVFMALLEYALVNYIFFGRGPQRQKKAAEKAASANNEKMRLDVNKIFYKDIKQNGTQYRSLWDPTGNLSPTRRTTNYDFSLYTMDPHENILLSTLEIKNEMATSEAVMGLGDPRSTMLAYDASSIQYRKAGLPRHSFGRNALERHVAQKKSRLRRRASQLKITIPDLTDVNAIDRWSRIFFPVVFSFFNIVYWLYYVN
T1 sequence (P18507 40-475 partner): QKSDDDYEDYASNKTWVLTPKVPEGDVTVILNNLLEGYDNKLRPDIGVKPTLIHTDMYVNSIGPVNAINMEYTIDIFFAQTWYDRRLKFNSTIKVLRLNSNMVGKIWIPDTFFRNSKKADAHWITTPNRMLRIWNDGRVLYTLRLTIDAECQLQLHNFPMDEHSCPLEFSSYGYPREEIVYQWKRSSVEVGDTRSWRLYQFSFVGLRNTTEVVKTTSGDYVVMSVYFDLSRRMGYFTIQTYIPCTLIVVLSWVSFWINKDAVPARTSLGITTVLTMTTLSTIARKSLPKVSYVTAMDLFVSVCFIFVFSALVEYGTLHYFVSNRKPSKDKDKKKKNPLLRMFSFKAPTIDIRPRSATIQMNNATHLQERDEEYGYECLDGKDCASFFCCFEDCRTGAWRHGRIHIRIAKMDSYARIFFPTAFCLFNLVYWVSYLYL

Take `C[C@@]1(O)CC[C@H]2[C@H](CC[C@@H]3[C@@H]2CC[C@]2(C)[C@@H](C(=O)Cn4nnn(CC5CC5)c4=O)CC[C@@H]32)C1` [Example 7, 1-(cyclopropylmethyl)-4-(2-((3R,5R,8R,9R,10S,13S,14S,17S)-3-hydroxy-3,13-dimethylhexadecahydro-1H-cyclopenta[a]phenanthren-17-yl)-2-oxoethyl)-1,4-dihydro-5H-tetrazol-5-one]: in data set [1], the EC50 is 99 nM. Also, in data set [2] (iv, 1 mg/kg i.v.), the clearance was 68.7 mL/min/kg, the half-life is 0.6 h and the Vd was determined as 1.69 L/kg. In addition, in data set [2] (setting [3]), the AUC(0-t) came to 239 ng·h/mL. Besides, in data set [2] (po, 5 mg/kg p.o.), the Cmax was 186 ng/mL and the Tmax was found to be 30 min. Also, the bioavailability in data set [2] (po) is 27.6%. In addition, the AUC(0-t) in data set [2] (setting [4]) came out at 326 ng·h/mL.
For the compound `CCn1nnn(CC(=O)[C@H]2CC[C@H]3[C@@H]4CC[C@@H]5C[C@](C)(O)CC[C@@H]5[C@H]4CC[C@]23C)c1=O` [Example 3, 1-ethyl-4-(2-((3R,5R,8R,9R,10S,13S,14S,17S)-3-hydroxy-3,13-dimethylhexadecahydro-1H-cyclopenta[a]phenanthren-17-yl)-2-oxoethyl)-1,4-dihydro-5H-tetrazol-5-one], in data set [1], the EC50 worked out at 94 nM. Besides, in data set [2] (iv, 1 mg/kg i.v.), the clearance was 24.3 mL/min/kg, the half-life was 0.57 h and the Vd was 0.93 L/kg. In addition, in data set [2] (setting [3]), the AUC(0-t) stood at 673 ng·h/mL. In addition, in data set [2] (po, 5 mg/kg p.o.), the Cmax turned out to be 973 ng/mL and the Tmax came out at 30 min. Also, the bioavailability in data set [2] (po) was found to be 40.5%. Moreover, in data set [2] (setting [4]), the AUC(0-t) came out at 1330 ng·h/mL.
For `C[C@@]1(O)CC[C@H]2[C@H](CC[C@@H]3[C@@H]2CC[C@]2(C)[C@@H](C(=O)Cn4nnn(-c5cocn5)c4=O)CC[C@@H]32)C1` [Example 24, 1-(2-((3R,5R,8R,9R,10S,13S,14S,17S)-3-hydroxy-3,13-dimethylhexadecahydro-1H-cyclopenta[a]phenanthren-17-yl)-2-oxoethyl)-4-(oxazol-4-yl)-1,4-dihydro-5H-tetrazol-5-one], in data set [1], the EC50 came out at 64 nM and the Emax was 698%. Further, in data set [2] (iv, 1 mg/kg i.v.), the clearance is 15.5 mL/min/kg, the half-life is 1.57 h and the Vd is 1.87 L/kg. The AUC(0-t) in data set [2] (setting [3]) turned out to be 998 ng·h/mL. Moreover, in data set [2] (po, 5 mg/kg p.o.), the highest level (Cmax) was 775 ng/mL and the Tmax was determined as 180 min. Also, the bioavailability in data set [2] (po) is 172%. Moreover, the AUC(0-t) in data set [2] (setting [4]) stood at 9180 ng·h/mL.
On to `C[C@@]1(O)CC[C@H]2[C@H](CC[C@@H]3[C@@H]2CC[C@]2(C)[C@@H](C(=O)Cn4nnn(-c5ccn[nH]5)c4=O)CC[C@@H]32)C1` [Example 25, 1-(2-((3R,5R,8R,9R,10S,13S,14S,17S)-3-hydroxy-3,13-dimethylhexadecahydro-1H-cyclopenta[a]phenanthren-17-yl)-2-oxoethyl)-4-(1H-pyrazol-5-yl)-1,4-dihydro-5H-tetrazol-5-one], for which, in data set [1], the EC50 is 130 nM. In addition, in data set [2] (iv, 1 mg/kg i.v.), the clearance was 6.5 mL/min/kg, the half-life was 4.63 h and the Vd was found to be 1.88 L/kg. Further, the AUC(0-t) in data set [2] (setting [3]) amounted to 2480 ng·h/mL. In data set [2] (po, 5 mg/kg p.o.), the peak level (Cmax) was 1190 ng/mL and the Tmax came out at 180 min. The bioavailability in data set [2] (po) is 106%. Also, the AUC(0-t) in data set [2] (setting [4]) was found to be 12800 ng·h/mL.
Consider `CC(C)n1nnn(CC(=O)[C@H]2CC[C@H]3[C@@H]4CC[C@@H]5C[C@](C)(O)CC[C@@H]5[C@H]4CC[C@]23C)c1=O` [Example 4, 1-(2-((3R,5R,8R,9R,10S,13S,14S,17S)-3-hydroxy-3,13-dimethylhexadecahydro-1H-cyclopenta[a]phenanthren-17-yl)-2-oxoethyl)-4-isopropyl-1,4-dihydro-5H-tetrazol-5-one], for which the EC50 in data set [1] stood at 140 nM. In addition, in data set [2] (iv, 1 mg/kg i.v.), the clearance is 24.8 mL/min/kg, the half-life was 0.54 h and the Vd came out at 0.88 L/kg. In data set [2] (setting [3]), the AUC(0-t) stood at 659 ng·h/mL. For the same compound, in data set [2] (po, 5 mg/kg p.o.), the highest concentration (Cmax) is 808 ng/mL and the Tmax is 15 min. The bioavailability in data set [2] (po) was determined as 25.8%. For the same compound, the AUC(0-t) in data set [2] (setting [4]) worked out at 782 ng·h/mL.
On to `C[C@@]1(O)CC[C@H]2[C@H](CC[C@@H]3[C@@H]2CC[C@]2(C)[C@@H](C(=O)Cn4nnn(-c5cccc(F)c5)c4=O)CC[C@@H]32)C1` [Example 12, 1-(3-fluorophenyl)-4-(2-((3R,5R,8R,9R,10S,13S,14S,17S)-3-hydroxy-3,13-dimethylhexadecahydro-1H-cyclopenta[a]phenanthren-17-yl)-2-oxoethyl)-1,4-dihydro-5H-tetrazol-5-one], for which the EC50 in data set [1] stood at 9.3 nM. Moreover, in data set [2] (iv, 1 mg/kg i.v.), the clearance is 8.33 mL/min/kg, the half-life is 6.22 h and the Vd was 2.86 L/kg. For the same compound, the AUC(0-t) in data set [2] (setting [3]) stood at 1880 ng·h/mL. For the same compound, in data set [2] (po, 5 mg/kg p.o.), the Cmax stood at 388 ng/mL and the Tmax was 60 min. In addition, the bioavailability in data set [2] (po) was found to be 42.4%. For the same compound, the AUC(0-t) in data set [2] (setting [4]) is 4140 ng·h/mL.
In the case of `C[C@@]1(O)CC[C@H]2[C@H](CC[C@@H]3[C@@H]2CC[C@]2(C)[C@@H](C(=O)Cn4nnn(-c5cccc(C#N)c5)c4=O)CC[C@@H]32)C1` [Example 14, 3-(4-(2-((3R,5R,8R,9R,10S,13S,14S,17S)-3-hydroxy-3,13-dimethylhexadecahydro-1H-cyclopenta[a]phenanthren-17-yl)-2-oxoethyl)-5-oxo-4,5-dihydro-1H-tetrazol-1-yl)benzonitrile], in data set [1], the EC50 was found to be 7 nM and the Emax was 974%. In data set [2] (iv, 1 mg/kg i.v.), the clearance is 20.5 mL/min/kg, the half-life was 1.44 h and the Vd worked out at 1.92 L/kg. Besides, the AUC(0-t) in data set [2] (setting [3]) is 771 ng·h/mL. In data set [2] (po, 5 mg/kg p.o.), the Cmax was determined as 250 ng/mL and the Tmax turned out to be 60 min. Moreover, in data set [2] (po), the bioavailability is 28.9%. Moreover, in data set [2] (setting [4]), the AUC(0-t) was determined as 1120 ng·h/mL.
As to `C[C@@]1(O)CC[C@H]2[C@H](CC[C@@H]3[C@@H]2CC[C@]2(C)[C@@H](C(=O)Cn4nnn(C5CCCC5)c4=O)CC[C@@H]32)C1` [Example 8, 1-cyclopentyl-4-(2-((3R,5R,8R,9R,10S,13S,14S,17S)-3-hydroxy-3,13-dimethylhexadecahydro-1H-cyclopenta[a]phenanthren-17-yl)-2-oxoethyl)-1,4-dihydro-5H-tetrazol-5-one], in data set [1], the EC50 was determined as 95 nM. Also, in data set [2] (iv, 1 mg/kg i.v.), the clearance was 140 mL/min/kg, the half-life was 0.73 h and the Vd was 2.38 L/kg. The AUC(0-t) in data set [2] (setting [3]) turned out to be 117 ng·h/mL. In addition, in data set [2] (po, 5 mg/kg p.o.), the Cmax is 22 ng/mL and the Tmax came out at 39.6 min. In addition, in data set [2] (po), the bioavailability turned out to be 4.48%. Besides, in data set [2] (setting [4]), the AUC(0-t) amounted to 26 ng·h/mL.
Take `CC(C)(C)n1nnn(CC(=O)[C@H]2CC[C@H]3[C@@H]4CC[C@@H]5C[C@](C)(O)CC[C@@H]5[C@H]4CC[C@]23C)c1=O` [Example 5, 1-(tert-butyl)-4-(2-((3R,5R,8R,9R,10S,13S,14S,17S)-3-hydroxy-3,13-dimethylhexadecahydro-1H-cyclopenta[a]phenanthren-17-yl)-2-oxoethyl)-1,4-dihydro-5H-tetrazol-5-one]: the EC50 in data set [1] is 150 nM. Moreover, in data set [2] (iv, 1 mg/kg i.v.), the clearance is 24.5 mL/min/kg, the half-life is 7.83 h and the Vd came to 8.3 L/kg. Moreover, in data set [2] (setting [3]), the AUC(0-t) came to 634 ng·h/mL. Besides, in data set [2] (po, 5 mg/kg p.o.), the highest level (Cmax) was 276 ng/mL and the Tmax amounted to 30 min. The bioavailability in data set [2] (po) came out at 20.5%. Moreover, in data set [2] (setting [4]), the AUC(0-t) turned out to be 633 ng·h/mL.
